Measured values reported in patent US20190269666A1, “COMBINATION THERAPY WITH MERESTINIB AND ANTI-PD-L1 OR ANTI-PD-1 INHIBITORS FOR USE IN THE TREATMENT OF CANCER” (Eli Lilly and Company, priority 2016, published 2019).

Tested on: EMT6 syngeneic mouse mammary carcinoma tumor model
Experiment: EMT6 syngeneic mouse mammary carcinoma tumor model
Format: in vivo
From the text: A syngeneic mouse tumor model is used to evaluate potential combination effect of merestinib and anti-PD-L1 antibody in the EMT6 model (Rockwell, S C, Kallman, R F, Fajardo, L F. Characteristics of a serially transplanted mouse mammary tumor and its tissue-culture-adpated derivative. J Nat Cancer Institute. 1972, 49:735-749). Anti-PD-L1 antibody surrogate (178G7, LSN3370181) (Eppihimer et al. Microcirculation 2002:9(2):133) is used in the mouse study.
Female BALB/c mice (18-20 gm) from Envigo (Harlan Laboratories) are used for this study. Food and water are available ad libitum. Animals are acclimated for at least one week prior to any experimental manipulation. The study is performed in accordance with AALAC accredited institutional guidelines.
Merestinib is formulated as a solution in 10% PEG 400 in 90% (20% Captisol in H2O) once weekly. Anti-PD-L1 antibody (LSN3370181) is formulated in PBS (phosphate buffered saline).
EMT6 cells (from internal in vivo pharmacology cell culture group lot EMT6-3184882) are used for implantation. Approximately 5×10^5 cells in HBSS are implanted subcutaneously into the right hind flank of the animal under anesthesia. Prior to commencing drug administration, animals are randomized to treatment groups based on body weight.
There are 4 arms in this study with 15 animals per group: 1) vehicle control; 2) merestinib 12 mg/kg QD×21, PO; 3) LSN3370181 (anti-PD-L1) 0.5 mg/mouse once weekly for 3 weeks via IP; 4) combination merestinib+anti-PD-L1 antibody; combination therapies follow the same dosing schedule as the monotherapies. Treatment is initiated on Day 6 post tumor cell implantation and continued for 21 days (final dose administered on Day 26). Tumor volumes and body weight are measured bi-weekly. Tumor volume is estimated by using the formula: v=l×w^2×0.536 where l=larger of measured diameter and w=smaller of perpendicular diameter. Animals are sacrificed using CO2 and cervical dislocation.
On Day 20 post tumor cell implant, 5 animals from each group are taken down for harvesting of spleens and tumors for mechanism of action (MOA) studies (FACs analysis, gene expression). The remaining animals continue with treatment as described above. At the end of the dosing period (Day 27 post tumor cell implant), animals are observed for tumor growth for 43 days. Animals are removed from study when tumor burden reached or exceeded 2500 mm^3. To assess immune memory, on Day 70 post tumor cell implant, animals that remained on study (complete responders and partial responders) are rechallenged with new implant of EMT6 cells on the contralateral side and observed for tumor growth for 15 days.
Tumor volume is transformed to the log scale to equalize variance across time and treatment groups. The log volume data are analyzed with a two-way repeated measures analysis of variance by time and treatment using the MIXED procedures in SAS software (Version 9.3). The correlation model for the repeated measures is spatial power. Treated groups are compared to the control group at each time point. The MIXED procedure is also used separately for each treatment group to calculate least squares means and standard errors at each time point. Both analyses account for the autocorrelation within each animal and the loss of data that occurs when animals are removed or lost before end of study.
Bayesian ordinal logistic regression analysis is used to obtain the posterior probability of the combination treatment effect for synergy, additivity or antagonism was conducted on Day 69 for this study. Each animal was classified into one of 3 response categories, based on its Day 69 tumor volume and by comparison to the vehicle data: I) Non-responder (NR), II) Partial Responder (PR), III) Complete Responder (CR). CR is defined by tumor volume […] at Day 69. NR is defined as unperturbed exponential growth, similar to vehicle animals. […]

Structure (SMILES): Cc1ccc(C(=O)Nc2ccc(Oc3cc4cnn(C)c4cc3-c3cn[nH]c3)c(F)c2)c(=O)n1-c1ccc(F)cc1 [merestinib, N-(3-fluoro-4-(1-methyl-6-(1H-pyrazol-4-yl)-1H-indazol-5-yloxy)phenyl)-1-(4-fluorophenyl)-6-methyl-2-oxo-1,2-dihydropyridine-3-carboxamide]
- Regression (%) (Day 31): No tumor regression
- T/C % (Day 31): 35.2%
- Day 69 Treatment Responders NR (Non-responder) (animals of 10/group): 10
- Day 69 Treatment Responders PR (Partial Responder) (animals of 10/group): 0
- Day 69 Treatment Responders CR (Complete Responder) (animals of 10/group, tumor volume ≤25 mm^3): 0
- single agent anti-tumor activity (mouse, in vivo): weak single agent anti-tumor activity
